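Compound exposure: 48 hours, 5 concentrations, 96-well plates. GI50: concentration for 50% inhibition of growth.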 The source made the active and inactive calls. No stated cut-off is given here; in the data, active = GI50 up to about 1.1 µM and inactive = higher.
Assays:
Test in all cases: growth of human tumour cells (NCI), 48 h
SF-539 = system: SF-539
OVCAR-3 = system: OVCAR-3
SNB-19 = system: SNB-19
NCI-H522 = system: NCI-H522
HCT-116 = system: HCT-116
SW-620 = system: SW-620
CAKI-1 = system: CAKI-1
RXF 393 = system: RXF 393
SK-MEL-5 = system: SK-MEL-5
SK-MEL-2 = system: SK-MEL-2
EKVX = system: EKVX
M14 = system: M14
DU-145 = system: DU-145
UO-31 = system: UO-31
K562 = system: K562
LOX IMVI = system: LOX IMVI
NCI/ADR-RES = system: NCI/ADR-RES
IGROV-1 = system: IGROV-1
SN12C = system: SN12C
MDA-MB-231 = system: MDA-MB-231

Structure (SMILES) | GI50 (SF-539) | GI50 (OVCAR-3) | GI50 (SNB-19) | GI50 (NCI-H522) | GI50 (HCT-116) | GI50 (SW-620) | GI50 (CAKI-1) | GI50 (RXF 393) | GI50 (SK-MEL-5) | GI50 (SK-MEL-2) | GI50 (EKVX) | GI50 (M14) | GI50 (DU-145) | GI50 (UO-31) | GI50 (K562) | GI50 (LOX IMVI) | GI50 (NCI/ADR-RES) | GI50 (IGROV-1) | GI50 (SN12C) | GI50 (MDA-MB-231)
O=C(N/N=C/c1ccc(Cl)cc1)c1c(Cl)c(Cl)c(Cl)c(Cl)c1-c1nc2ccccc2[nH]1 | > 100 µM (inactive) | > 100 µM (inactive) | > 100 µM (inactive) | 55.7 µM (inactive) | 40.3 µM (inactive) | > 100 µM (inactive) | 46.2 µM (inactive) | 33 µM (inactive) | 49 µM (inactive) | 93.1 µM (inactive) | 16.9 µM (inactive) | 86.5 µM (inactive) | > 100 µM (inactive) | 86.9 µM (inactive) | 47.9 µM (inactive) | 41.1 µM (inactive) | > 100 µM (inactive) | 59.3 µM (inactive) | > 100 µM (inactive) | –
O=C(/C=C/c1cccs1)c1ccc([N+](=O)[O-])cc1 | > 100 µM (inactive) | – | 94.8 µM (inactive) | – | 58.1 µM (inactive) | > 100 µM (inactive) | > 100 µM (inactive) | – | > 100 µM (inactive) | > 100 µM (inactive) | > 100 µM (inactive) | > 100 µM (inactive) | > 100 µM (inactive) | 26.9 µM (inactive) | 66.1 µM (inactive) | 74.5 µM (inactive) | 83.4 µM (inactive) | > 100 µM (inactive) | > 100 µM (inactive) | > 100 µM (inactive)
CC(=O)NC1C(OCc2ccccc2)OC(CO)C(O)C1OCC(=O)N1CCCC1C(=O)N[C@@H](CCC(=O)NCCCCNc1c2ccccc2nc2cccc([N+](=O)[O-])c12)C(N)=O (some centres undefined) | 77.4 µM (inactive) | 21.6 µM (inactive) | 17.7 µM (inactive) | – | 22.9 µM (inactive) | 11.5 µM (inactive) | > 100 µM (inactive) | – | – | 15.4 µM (inactive) | 43.3 µM (inactive) | 16 µM (inactive) | 31.8 µM (inactive) | 45.2 µM (inactive) | 26.4 µM (inactive) | – | > 100 µM (inactive) | 14.8 µM (inactive) | 23.7 µM (inactive) | –
C1CCCN(NC2=NCCO2)CC1 | > 100 µM (inactive) | > 100 µM (inactive) | > 100 µM (inactive) | > 100 µM (inactive) | > 100 µM (inactive) | > 100 µM (inactive) | > 100 µM (inactive) | > 100 µM (inactive) | > 100 µM (inactive) | > 100 µM (inactive) | > 100 µM (inactive) | > 100 µM (inactive) | – | > 100 µM (inactive) | > 100 µM (inactive) | > 100 µM (inactive) | > 100 µM (inactive) | > 100 µM (inactive) | > 100 µM (inactive) | > 100 µM (inactive)
CSCSSC | > 100 µM (inactive) | > 100 µM (inactive) | > 100 µM (inactive) | > 100 µM (inactive) | > 100 µM (inactive) | 49.4 µM (inactive) | > 21.6 µM (inactive) | > 100 µM (inactive) | > 100 µM (inactive) | > 35.5 µM (inactive) | > 100 µM (inactive) | > 100 µM (inactive) | > 100 µM (inactive) | > 100 µM (inactive) | 95.3 µM (inactive) | 17.7 µM (inactive) | > 100 µM (inactive) | > 79.6 µM (inactive) | > 100 µM (inactive) | –
C=CCCC1CCCNC1=S (centres undefined) | > 100 µM (inactive) | – | > 100 µM (inactive) | > 100 µM (inactive) | > 100 µM (inactive) | > 100 µM (inactive) | > 100 µM (inactive) | > 100 µM (inactive) | > 100 µM (inactive) | > 100 µM (inactive) | > 100 µM (inactive) | > 100 µM (inactive) | > 100 µM (inactive) | > 100 µM (inactive) | > 100 µM (inactive) | – | – | > 100 µM (inactive) | > 100 µM (inactive) | > 100 µM (inactive)
Cc1ccccc1NC(=O)Cc1csc2[n+]1C(=O)/C(=C/c1ccc([N+](=O)[O-])cc1)S2 | 29 µM (inactive) | 31.2 µM (inactive) | 26.4 µM (inactive) | – | 37.6 µM (inactive) | 33.6 µM (inactive) | 25.5 µM (inactive) | – | 27.4 µM (inactive) | 29.4 µM (inactive) | 22.7 µM (inactive) | 32.2 µM (inactive) | 53.8 µM (inactive) | 18.4 µM (inactive) | – | 38.5 µM (inactive) | 42.4 µM (inactive) | 25.7 µM (inactive) | 43.4 µM (inactive) | 37.5 µM (inactive)
CC1(C)CC2(C)CC1CC2(O)c1ccccc1 (centres undefined) | > 100 µM (inactive) | > 100 µM (inactive) | > 100 µM (inactive) | > 100 µM (inactive) | > 100 µM (inactive) | > 100 µM (inactive) | > 100 µM (inactive) | > 100 µM (inactive) | > 100 µM (inactive) | – | – | > 100 µM (inactive) | > 100 µM (inactive) | > 100 µM (inactive) | > 100 µM (inactive) | – | – | > 100 µM (inactive) | > 100 µM (inactive) | > 100 µM (inactive)
N[C@@H]1CCN(c2c(F)cc3c(=O)c(C(=O)O)cn4c3c2Oc2c-4ccc3c2ccc2ccccc23)C1 | 3.01 µM (inactive) | 21.5 µM (inactive) | 0.344 µM (active) | 3.18 µM (inactive) | 1.08 µM (active) | 0.671 µM (active) | 6.53 µM (inactive) | 1.2 µM (inactive) | 1.44 µM (inactive) | 7.8 µM (inactive) | 0.857 µM (active) | 5.55 µM (inactive) | 3.81 µM (inactive) | 3.24 µM (inactive) | 3.1 µM (inactive) | 1.68 µM (inactive) | 23.2 µM (inactive) | 0.413 µM (active) | 3.37 µM (inactive) | –
Cn1cco/c1=N/c1ccc(Cl)c(Cl)c1 | > 10 µM (inactive) | > 10 µM (inactive) | > 10 µM (inactive) | > 10 µM (inactive) | > 10 µM (inactive) | > 10 µM (inactive) | > 10 µM (inactive) | – | > 10 µM (inactive) | – | > 10 µM (inactive) | > 10 µM (inactive) | > 10 µM (inactive) | > 10 µM (inactive) | > 10 µM (inactive) | > 10 µM (inactive) | > 10 µM (inactive) | > 10 µM (inactive) | > 10 µM (inactive) | > 10 µM (inactive)
CC(=O)OCC1OC(Sc2nc(-c3ccc(C)cc3)c(C#N)c(=O)n2C2OC(COC(C)=O)C(OC(C)=O)C(OC(C)=O)C2OC(C)=O)C(OC(C)=O)C(OC(C)=O)C1OC(C)=O (centres undefined) | > 100 µM (inactive) | > 100 µM (inactive) | > 100 µM (inactive) | > 100 µM (inactive) | > 100 µM (inactive) | > 100 µM (inactive) | > 100 µM (inactive) | > 100 µM (inactive) | > 100 µM (inactive) | > 100 µM (inactive) | > 100 µM (inactive) | – | > 100 µM (inactive) | > 100 µM (inactive) | – | > 100 µM (inactive) | > 100 µM (inactive) | > 100 µM (inactive) | > 100 µM (inactive) | –
CC(O)CNC1=CC(=O)C(=O)c2ccccc21 (centres undefined) | 19.2 µM (inactive) | 3 µM (inactive) | 16.7 µM (inactive) | 18.5 µM (inactive) | 16.1 µM (inactive) | 15.5 µM (inactive) | 18.7 µM (inactive) | 35.4 µM (inactive) | 2.82 µM (inactive) | 16.4 µM (inactive) | 18.6 µM (inactive) | 15.5 µM (inactive) | 15.5 µM (inactive) | 17.7 µM (inactive) | 28.9 µM (inactive) | 15.9 µM (inactive) | – | 13.4 µM (inactive) | 17.1 µM (inactive) | 22 µM (inactive)
O=C(CC(C(=O)c1ccsc1)c1ccsc1)c1ccsc1 (centres undefined) | > 100 µM (inactive) | – | > 100 µM (inactive) | – | 43.4 µM (inactive) | > 100 µM (inactive) | > 100 µM (inactive) | – | 43.5 µM (inactive) | > 100 µM (inactive) | 75.2 µM (inactive) | 50.2 µM (inactive) | > 100 µM (inactive) | 39.4 µM (inactive) | 54.6 µM (inactive) | 79.8 µM (inactive) | 32.1 µM (inactive) | > 100 µM (inactive) | > 100 µM (inactive) | > 100 µM (inactive)
CSc1ccc(/C=C2\N=C(c3ccccc3)N(/N=C/c3cc4cc(C)ccc4nc3Cl)C2=O)cc1 | 16.5 µM (inactive) | 19.5 µM (inactive) | 16.7 µM (inactive) | – | 13.6 µM (inactive) | 27.4 µM (inactive) | 18.1 µM (inactive) | – | 16.1 µM (inactive) | 16.8 µM (inactive) | 32.4 µM (inactive) | 16.7 µM (inactive) | 17.8 µM (inactive) | 15 µM (inactive) | 22 µM (inactive) | 18.6 µM (inactive) | 19.1 µM (inactive) | 14.3 µM (inactive) | 17.7 µM (inactive) | 19.6 µM (inactive)
CC(C)CCNC(=O)C(CC(C)C)NC(=O)[C@H]1O[C@@H]1C(=O)O (some centres undefined) | > 100 µM (inactive) | > 100 µM (inactive) | > 100 µM (inactive) | > 100 µM (inactive) | > 100 µM (inactive) | > 100 µM (inactive) | > 100 µM (inactive) | – | > 100 µM (inactive) | – | > 100 µM (inactive) | > 100 µM (inactive) | > 100 µM (inactive) | > 100 µM (inactive) | > 100 µM (inactive) | – | > 100 µM (inactive) | > 100 µM (inactive) | > 100 µM (inactive) | > 100 µM (inactive)

— ChEMBL document CHEMBL1201862, “PubChem BioAssay data set” (2004)
